Where “and” joins values, the source holds several entries; their conditions need not be identical. Equal values may be shown once. Toxic doses and inconclusive results are not listed.
System: L1210 leukemia ip in BDF1 mice, survival T/C
Assay: NCI In Vivo Anticancer Drug Screen. Data for tumor model L1210 Leukemia (intraperitoneal) in B6D2F1 (BDF1) mice
Settings: endpoint: mean survival time, higher = longer survival
In short: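 Tumor cells were implanted, animals were treated, and survival was followed. The result divides the treated measurement by the vehicle-control measurement.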

[1] = dose: 100.0 mg/kg/injection, schedule: Q01DX001 (ip), vehicle: carboxymethylcellulose (CMC)
[2] = dose: 100.0 mg/kg/injection, schedule: Q01DX001 (ip), vehicle: saline
[3] = dose: 200.0 mg/kg/injection, schedule: Q01DX001 (ip), vehicle: carboxymethylcellulose (CMC)
[4] = dose: 200.0 mg/kg/injection, schedule: Q01DX001 (ip), vehicle: saline
[5] = dose: 400.0 mg/kg/injection, schedule: Q01DX001 (ip), vehicle: carboxymethylcellulose (CMC)
[6] = dose: 400.0 mg/kg/injection, schedule: Q01DX001 (ip), vehicle: saline
[7] = dose: 100.0 mg/kg/injection, schedule: Q04DX003 (ip), vehicle: saline with Tween-80
[8] = dose: 200.0 mg/kg/injection, schedule: Q04DX003 (ip), vehicle: saline with Tween-80
[9] = dose: 400.0 mg/kg/injection, schedule: Q04DX003 (ip), vehicle: saline with Tween-80
[10] = dose: 50.0 mg/kg/injection, schedule: Q01DX001 (ip), vehicle: saline
[11] = dose: 100.0 mg/kg/injection, schedule: Q04DX003 (ip), vehicle: saline
[12] = dose: 200.0 mg/kg/injection, schedule: Q04DX003 (ip), vehicle: saline
[13] = dose: 100.0 mg/kg/injection, schedule: Q01DX009 (ip), vehicle: Klucel (hydroxypropylcellulose) (HPC)
[14] = dose: 100.0 mg/kg/injection, schedule: Q04DX003 (ip), vehicle: Klucel (hydroxypropylcellulose) (HPC)
[15] = dose: 200.0 mg/kg/injection, schedule: Q01DX009 (ip), vehicle: Klucel (hydroxypropylcellulose) (HPC)
[16] = dose: 200.0 mg/kg/injection, schedule: Q04DX003 (ip), vehicle: Klucel (hydroxypropylcellulose) (HPC)
[17] = dose: 400.0 mg/kg/injection, schedule: Q04DX003 (ip), vehicle: Klucel (hydroxypropylcellulose) (HPC)

With `C[N+]12CN3CN(CN(C3)C1)C2` the T/C (dose: 50.0 mg/kg/injection, schedule: Q01DX001 (ip), vehicle: carboxymethylcellulose (CMC)) was 104 % of control, the T/C [1] was 106 % of control and the T/C [2] was 100 % of control. For the same compound, the T/C (dose: 100.0 mg/kg/injection, schedule: Q01DX009 (ip), vehicle: saline) was 110 % of control, the T/C [3] was 101 % of control and the T/C [4] was 91 % of control. For the same compound, the T/C (dose: 200.0 mg/kg/injection, schedule: Q01DX009 (ip), vehicle: saline) was 114 % of control, the T/C [5] was 98 % of control and the T/C [6] was 96 % of control. The T/C (dose: 400.0 mg/kg/injection, schedule: Q01DX009 (ip), vehicle: saline) was 105 % of control.

In the case of `Cc1c(F)cc(I)cc1[N+](=O)[O-]`, the T/C (dose: 100.0 mg/kg/injection, schedule: Q01DX001 (ip), vehicle: acetone) is reported as 100 % of control, the T/C (dose: 100.0 mg/kg/injection, schedule: Q01DX009 (ip), vehicle: saline with Tween-80) is reported as 103 % of control and the T/C [7] is reported as 100 % of control. For the same compound, the T/C (dose: 200.0 mg/kg/injection, schedule: Q01DX001 (ip), vehicle: acetone) was 95 % of control, the T/C (dose: 200.0 mg/kg/injection, schedule: Q01DX009 (ip), vehicle: saline with Tween-80) was 105 % of control and the T/C [8] was 100 % of control. For the same compound, the T/C (dose: 400.0 mg/kg/injection, schedule: Q01DX001 (ip), vehicle: acetone) was 97 % of control, the T/C (dose: 400.0 mg/kg/injection, schedule: Q01DX009 (ip), vehicle: saline with Tween-80) was 103 % of control and the T/C [9] was 93 % of control.

For `OCCOc1nc(Cl)nc(Cl)c1Cl` (tested in a mixture with another compound), the T/C (dose: 12.5 mg/kg/injection, schedule: Q01DX009 (ip), vehicle: Klucel (hydroxypropylcellulose) (HPC)) was 110 % of control, the T/C (dose: 25.0 mg/kg/injection, schedule: Q01DX009 (ip), vehicle: Klucel (hydroxypropylcellulose) (HPC)) was 96 % of control and the T/C (dose: 50.0 mg/kg/injection, schedule: Q01DX009 (ip), vehicle: Klucel (hydroxypropylcellulose) (HPC)) was 100 % of control and 91 % of control.

For `Cc1ccc(NCCN(C)C)c2c(=O)c3ccccc3sc12`, the T/C (dose: 9.3 mg/kg/injection, schedule: Q01DX Z (ip), vehicle: saline) was 104 % of control, the T/C (dose: 14.0 mg/kg/injection, schedule: Q01DX Z (ip), vehicle: saline) was 108 % of control and the T/C (dose: 21.0 mg/kg/injection, schedule: Q01DX Z (ip), vehicle: saline) was 118 % of control. The T/C (dose: 28.0 mg/kg/injection, schedule: Q01DX Z (ip), vehicle: saline) was 117 % of control, the T/C (dose: 42.0 mg/kg/injection, schedule: Q01DX Z (ip), vehicle: saline) was 163 % of control and the T/C [10] was 101 % of control. For the same compound, the T/C (dose: 84.0 mg/kg/injection, schedule: Q01DX Z (ip), vehicle: saline) was 115 % of control, the T/C (dose: 89.0 mg/kg/injection, schedule: Q01DX001 (ip), vehicle: saline) was 100 % of control and the T/C (dose: 93.0 mg/kg/injection, schedule: Q01DX Z (ip), vehicle: saline) was 101 % of control. For the same compound, the T/C [2] was 109 % of control, the T/C (dose: 100.0 mg/kg/injection, schedule: Q01DX Z (ip), vehicle: saline) was 107 % of control and the T/C (dose: 125.0 mg/kg/injection, schedule: Q01DX Z (ip), vehicle: carboxymethylcellulose (CMC)) was 151 % of control. The T/C (dose: 133.0 mg/kg/injection, schedule: Q01DX001 (ip), vehicle: saline) was 117 % of control and the T/C [4] was 155 % of control and 212 % of control.

With `Oc1ccc(Sc2ccc(O)cc2)cc1` the T/C [11] was 101 % of control and the T/C [12] was 92 % of control.

`CC1C(N2CCOCC2)CS1(=O)=O` (stereo not given) was tested, and the T/C [13] was 92 % of control, the T/C [14] was 93 % of control and the T/C [15] was 94 % of control. The T/C [16] was 98 % of control, the T/C (dose: 400.0 mg/kg/injection, schedule: Q01DX009 (ip), vehicle: Klucel (hydroxypropylcellulose) (HPC)) was 103 % of control and the T/C [17] was 98 % of control.

`NC(=O)COc1ccc(Cl)cc1Cl` was tested, and the T/C [13] was 111 % of control, the T/C (dose: 100.0 mg/kg/injection, schedule: Q04DX002 (ip), vehicle: Klucel (hydroxypropylcellulose) (HPC)) was 112 % of control and the T/C [15] was 101 % of control. The T/C (dose: 200.0 mg/kg/injection, schedule: Q04DX002 (ip), vehicle: Klucel (hydroxypropylcellulose) (HPC)) was 100 % of control.

`CCn1c(COc2ccc(Cl)cc2Cl)c(COC(=O)c2cccc(Cl)c2)c2ccccc21` was tested, and the T/C (dose: 100.0 mg/kg/injection, schedule: Q01DX009 (ip), vehicle: carboxymethylcellulose (CMC)) was 98 % of control and 103 % of control, the T/C (dose: 100.0 mg/kg/injection, schedule: Q04DX002 (ip), vehicle: carboxymethylcellulose (CMC)) was 101 % of control and 102 % of control and the T/C (dose: 200.0 mg/kg/injection, schedule: Q01DX009 (ip), vehicle: carboxymethylcellulose (CMC)) was 97 % of control and 98 % of control. The T/C (dose: 200.0 mg/kg/injection, schedule: Q04DX002 (ip), vehicle: carboxymethylcellulose (CMC)) was 94 % of control and 98 % of control, the T/C (dose: 400.0 mg/kg/injection, schedule: Q01DX009 (ip), vehicle: carboxymethylcellulose (CMC)) was 87 % of control and the T/C (dose: 400.0 mg/kg/injection, schedule: Q04DX002 (ip), vehicle: carboxymethylcellulose (CMC)) was 95 % of control and 91 % of control.

In the case of `CCCCC[CH2][Sn]([CH2]C)([CH2]C)[CH2]C`, the T/C (dose: 100.0 mg/kg/injection, schedule: Q04DX002 (ip), vehicle: saline) is reported as 93 % of control and the T/C (dose: 200.0 mg/kg/injection, schedule: Q04DX002 (ip), vehicle: saline) is reported as 93 % of control.

With `COC(=O)N/N=C/c1c[nH]c2ccccc12` the T/C [13] was 94 % of control and the T/C [15] was 106 % of control.

With `O=C(O)c1ccc(CC2CC3CCC2C3)cc1` (stereo not given) the T/C [7] was 93 % of control, the T/C [8] was 91 % of control and the T/C [9] was 88 % of control.

In the case of `COc1ccc2nc3cc(Cl)ccc3c(NCCO)c2c1`, the T/C (dose: 75.0 mg/kg/injection, schedule: Q01DX001 (ip), vehicle: Klucel (hydroxypropylcellulose) (HPC)) is reported as 100 % of control, the T/C [1] is reported as 100 % of control and the T/C [11] is reported as 96 % of control. For the same compound, the T/C (dose: 150.0 mg/kg/injection, schedule: Q01DX001 (ip), vehicle: Klucel (hydroxypropylcellulose) (HPC)) was 96 % of control, the T/C [3] was 100 % of control and the T/C [12] was 96 % of control. The T/C (dose: 300.0 mg/kg/injection, schedule: Q01DX001 (ip), vehicle: Klucel (hydroxypropylcellulose) (HPC)) was 96 % of control, the T/C [5] was 108 % of control and the T/C (dose: 400.0 mg/kg/injection, schedule: Q04DX003 (ip), vehicle: saline) was 89 % of control.

`CCCCC(=O)c1ccc(Cl)cc1` was tested, and the T/C [14] was 103 % of control, the T/C [16] was 111 % of control and the T/C [17] was 104 % of control.

With `Cc1cc(-n2c(C)ccc2C)no1` the T/C [7] was 100 % of control, the T/C [8] was 90 % of control and the T/C [9] was 101 % of control.

In the case of `CCc1cccc(CC)c1N=C=Nc1c(CC)cccc1CC`, the T/C (dose: 100.0 mg/kg/injection, schedule: Q04DX003 (ip), vehicle: other) is reported as 104 % of control, the T/C (dose: 200.0 mg/kg/injection, schedule: Q04DX003 (ip), vehicle: other) is reported as 100 % of control and the T/C (dose: 400.0 mg/kg/injection, schedule: Q04DX003 (ip), vehicle: other) is reported as 104 % of control.

In the case of `CC1=C/C(=N/Nc2ccc([N+](=O)[O-])cc2[N+](=O)[O-])CCC1`, the T/C (dose: 50.0 mg/kg/injection, schedule: Q01DX009 (ip), vehicle: acetone) is reported as 93 % of control, the T/C (dose: 100.0 mg/kg/injection, schedule: Q01DX009 (ip), vehicle: acetone) is reported as 88 % of control and the T/C (dose: 100.0 mg/kg/injection, schedule: Q04DX003 (ip), vehicle: acetone) is reported as 93 % of control. The T/C (dose: 200.0 mg/kg/injection, schedule: Q04DX003 (ip), vehicle: acetone) was 86 % of control and the T/C (dose: 400.0 mg/kg/injection, schedule: Q04DX003 (ip), vehicle: acetone) was 86 % of control.

With `CCCCc1ccc(Nc2cc(=O)[nH]c(=O)[nH]2)cc1` the T/C (dose: 25.0 mg/kg/injection, schedule: Q01DX001 (ip), vehicle: gum acacia) was 87 % of control, the T/C (dose: 50.0 mg/kg/injection, schedule: Q01DX001 (ip), vehicle: gum acacia) was 87 % of control and the T/C (dose: 200.0 mg/kg/injection, schedule: Q01DX001 (ip), vehicle: gum acacia) was 88 % of control. The T/C (dose: 400.0 mg/kg/injection, schedule: Q01DX001 (ip), vehicle: gum acacia) was 88 % of control.

In the case of `CC(CCc1ccc(OC(=O)c2ccccc2)cc1)OC(=O)c1ccccc1` (stereo not given), the T/C [10] is reported as 101 % of control, the T/C [2] is reported as 95 % of control and the T/C [4] is reported as 98 % of control. For the same compound, the T/C [6] was 95 % of control.

`COC1=C(c2ccccc2)C(=O)CCc2ccccc21` was tested, and the T/C [14] was 97 % of control, the T/C [16] was 106 % of control and the T/C [17] was 97 % of control.

Source: PubChem BioAssay AID248 (DTP/NCI, 2004)
